Experimental data reported in patent publication US11279687B2, “Compounds and compositions for the inhibition of NAMPT” (Valo Health, Inc., priority 2010, dated 2022).

What was measured:
NAMPT = NAMPT (Homo sapiens (Human), UniProt P43490); assay: NAMPT biochemical inhibition assay (NMN quantified by mass spectrometry); conditions: NAMPT biochemical inhibition; read-out: Biochem IC50
A2780 cells = assay: In-vitro cell proliferation assay (SRB), A2780 cells; format: cell-based; conditions: Homo sapiens, A2780, 72 h, A2780 cells, 72 hours, SRB; read-out: A2780 IC50;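 also: viable cell number read as SRB absorbance, background from media-only wells subtracted, IC50 interpolated from percent inhibition at two bracketing compound concentrations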

Chain of NAMPT (P43490 whole entry): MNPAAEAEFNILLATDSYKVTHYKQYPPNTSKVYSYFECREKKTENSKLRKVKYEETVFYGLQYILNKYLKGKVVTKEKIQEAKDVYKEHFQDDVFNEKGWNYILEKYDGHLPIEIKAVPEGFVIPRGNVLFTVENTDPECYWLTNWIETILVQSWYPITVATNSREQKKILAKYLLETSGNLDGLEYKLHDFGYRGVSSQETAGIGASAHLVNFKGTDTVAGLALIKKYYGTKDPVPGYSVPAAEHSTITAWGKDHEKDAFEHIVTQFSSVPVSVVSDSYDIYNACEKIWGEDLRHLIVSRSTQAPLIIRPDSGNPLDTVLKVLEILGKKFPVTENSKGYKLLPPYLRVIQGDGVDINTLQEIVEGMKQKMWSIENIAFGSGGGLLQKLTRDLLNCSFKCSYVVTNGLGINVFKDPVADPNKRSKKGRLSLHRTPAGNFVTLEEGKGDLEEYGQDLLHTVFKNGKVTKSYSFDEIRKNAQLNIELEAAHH

Row | SMILES | IC50 (NAMPT) | IC50 (A2780 cells)
1 | COc1cc(NS(=O)(=O)c2ccc(NC(=O)NCc3cccnc3)cc2)cc(OC)c1 [3-{4-[(3,5-dimethoxyphenyl)sulfamoyl]phenyl}-1-(pyridin-3-ylmethyl)urea] | 5 nM | 96 nM
2 | Cc1cc(C)cc(S(=O)(=O)c2ccc(NC(=O)NCc3cccnc3)cc2)c1 [3-{4-[(3,5-dimethylbenzene)sulfonyl]phenyl}-1-(pyridin-3-ylmethyl)urea] | 1 nM | 40 nM
3 | Cc1cc(C)cc(NS(=O)(=O)c2ccc(NC(=O)NCc3cccnc3)cc2)c1 [3-{4-[(3,5-dimethylphenyl)sulfamoyl]phenyl}-1-(pyridin-3-ylmethyl)urea] | 1 nM | 41 nM
4 | CC(=O)c1cccc(S(=O)(=O)c2ccc(NC(=O)NCc3cccnc3)cc2)c1 [3-{4-[(3-acetylbenzene)sulfonyl]phenyl}-1-(pyridin-3-ylmethyl)urea] | 2.1 nM | 100 to 1000 nM
5 | CS(=O)(=O)N(c1cccc(N)c1)S(=O)(=O)c1ccc(NC(=O)NCc2cccnc2)cc1 [3-{4-[(3-aminophenyl)(methanesulfonyl)sulfamoyl]phenyl}-1-(pyridin-3-ylmethyl)urea] | 3 nM | 110 nM
6 | O=C(NCc1cccnc1)Nc1ccc(S(=O)(=O)c2cccc(Br)c2)cc1 [3-{4-[(3-bromobenzene)sulfonyl]phenyl}-1-(pyridin-3-ylmethyl)urea] | 2 nM | 322 nM
7 | COc1ccc(S(=O)(=O)c2ccc(NC(=O)NCc3cccnc3)cc2)cc1Cl [3-{4-[(3-chloro-4-methoxybenzene)sulfonyl]phenyl}-1-(pyridin-3-ylmethyl)urea] | 1.3 nM | 92.9 nM
8 | Cc1ccc(S(=O)(=O)c2ccc(NC(=O)NCc3cccnc3)cc2)cc1Cl [3-{4-[(3-chloro-4-methylbenzene)sulfonyl]phenyl}-1-(pyridin-3-ylmethyl)urea] | 0.9 nM | 100 to 1000 nM
9 | Cc1ccc(NS(=O)(=O)c2ccc(NC(=O)NCc3cccnc3)cc2)cc1Cl [3-{4-[(3-chloro-4-methylphenyl)sulfamoyl]phenyl}-1-(pyridin-3-ylmethyl)urea] | 1.4 nM | 26 nM
10 | CCCOc1ccc(S(=O)(=O)c2ccc(NC(=O)NCc3cccnc3)cc2)cc1Cl [3-{4-[(3-chloro-4-propoxybenzene)sulfonyl]phenyl}-1-(pyridin-3-ylmethyl)urea] | 4.6 nM | 100 to 1000 nM
11 | COc1cc(Cl)cc(S(=O)(=O)c2ccc(NC(=O)NCc3cccnc3)cc2)c1 [3-{4-[(3-chloro-5-methoxybenzene)sulfonyl]phenyl}-1-(pyridin-3-ylmethyl)urea] | 1.3 nM | 27.2 nM
12 | Cc1cc(Cl)cc(S(=O)(=O)c2ccc(NC(=O)NCc3cccnc3)cc2)c1 [3-{4-[(3-chloro-5-methylbenzene)sulfonyl]phenyl}-1-(pyridin-3-ylmethyl)urea] | 1.8 nM | 67.1 nM
13 | O=C(NCc1cccnc1)Nc1ccc(S(=O)(=O)c2cccc(Cl)c2)cc1 [3-{4-[(3-chlorobenzene)sulfonyl]phenyl}-1-(pyridin-3-ylmethyl)urea] | 3 nM | 518 nM
14 | CCS(=O)(=O)Nc1cccc(S(=O)(=O)c2ccc(NC(=O)NCc3cccnc3)cc2)c1 [3-{4-[(3-ethanesulfonamidobenzene)sulfonyl]phenyl}-1-(pyridin-3-ylmethyl)urea] | 1.1 nM | 69.5 nM
15 | CCOc1cc(S(=O)(=O)c2ccc(NC(=O)NCc3cccnc3)cc2)ccc1F [3-{4-[(3-ethoxy-4-fluorobenzene)sulfonyl]phenyl}-1-(pyridin-3-ylmethyl)urea] | 3.9 nM | 28.3 nM
16 | CCOc1cccc(S(=O)(=O)c2ccc(NC(=O)NCc3cccnc3)cc2)c1 [3-{4-[(3-ethoxybenzene)sulfonyl]phenyl}-1-(pyridin-3-ylmethyl)urea] | 1.7 nM | 83.7 nM
17 | CCc1cccc(S(=O)(=O)c2ccc(NC(=O)NCc3cccnc3)cc2)c1 [3-{4-[(3-ethylbenzene)sulfonyl]phenyl}-1-(pyridin-3-ylmethyl)urea] | 2 nM | 70.8 nM
18 | COc1ccc(S(=O)(=O)c2ccc(NC(=O)NCc3cccnc3)cc2)cc1F [3-{4-[(3-fluoro-4-methoxybenzene)sulfonyl]phenyl}-1-(pyridin-3-ylmethyl)urea] | 2 nM | 173 nM
19 | Cc1ccc(S(=O)(=O)c2ccc(NC(=O)NCc3cccnc3)cc2)cc1F [3-{4-[(3-fluoro-4-methylbenzene)sulfonyl]phenyl}-1-(pyridin-3-ylmethyl)urea] | 1 nM | 206 nM
20 | CCCOc1ccc(S(=O)(=O)c2ccc(NC(=O)NCc3cccnc3)cc2)cc1F [3-{4-[(3-fluoro-4-propoxybenzene)sulfonyl]phenyl}-1-(pyridin-3-ylmethyl)urea] | 1.3 nM | 58.5 nM
21 | COc1cc(F)cc(S(=O)(=O)c2ccc(NC(=O)NCc3cccnc3)cc2)c1 [3-{4-[(3-fluoro-5-methoxybenzene)sulfonyl]phenyl}-1-(pyridin-3-ylmethyl)urea] | 1.7 nM | 100 to 1000 nM

Row | SMILES | IC50 (NAMPT) | IC50 (A2780 cells)
22 | Cc1cc(F)cc(S(=O)(=O)c2ccc(NC(=O)NCc3cccnc3)cc2)c1 [3-{4-[(3-fluoro-5-methylbenzene)sulfonyl]phenyl}-1-(pyridin-3-ylmethyl)urea] | 1.7 nM | 99.3 nM
23 | O=C(NCc1cccnc1)Nc1ccc(S(=O)(=O)c2cccc(F)c2)cc1 [3-{4-[(3-fluorobenzene)sulfonyl]phenyl}-1-(pyridin-3-ylmethyl)urea] | 1 nM | 238 nM
24 | CS(=O)(=O)c1cccc(S(=O)(=O)c2ccc(NC(=O)NCc3cccnc3)cc2)c1 [3-{4-[(3-methanesulfonylbenzene)sulfonyl]phenyl}-1-(pyridin-3-ylmethyl)urea] | 6.6 nM | 100 to 1000 nM
25 | COc1cc(S(=O)(=O)c2ccc(NC(=O)NCc3cccnc3)cc2)ccc1C [3-{4-[(3-methoxy-4-methylbenzene)sulfonyl]phenyl}-1-(pyridin-3-ylmethyl)urea] | 2.7 nM | 17.9 nM
26 | COc1cc(NS(=O)(=O)c2ccc(NC(=O)NCc3cccnc3)cc2)ccc1C [3-{4-[(3-methoxy-4-methylphenyl)sulfamoyl]phenyl}-1-(pyridin-3-ylmethyl)urea] | 4 nM | 148 nM
27 | Cc1cccc(S(=O)(=O)c2ccc(NC(=O)NCc3cccnc3)cc2)c1 [3-{4-[(3-methylbenzene)sulfonyl]phenyl}-1-(pyridin-3-ylmethyl)urea] | 2 nM | 157 nM
28 | CCCOc1cccc(S(=O)(=O)c2ccc(NC(=O)NCc3cccnc3)cc2)c1 [3-{4-[(3-propoxybenzene)sulfonyl]phenyl}-1-(pyridin-3-ylmethyl)urea] | 3.8 nM | 100 to 1000 nM
29 | Cc1cccc(N2CCN(S(=O)(=O)c3ccc(NC(=O)NCc4cccnc4)cc3)C[C@@H]2C)c1 [3-{4-[(3S)-3-methyl-4-(3-methylphenyl)piperazine-1-sulfonyl]phenyl}-1-(pyridin-3-ylmethyl)urea] | 3 nM | 34 nM
30 | Cc1ccc(N2CCN(S(=O)(=O)c3ccc(NC(=O)NCc4cccnc4)cc3)C[C@@H]2C)cc1 [3-{4-[(3S)-3-methyl-4-(4-methylphenyl)piperazine-1-sulfonyl]phenyl}-1-(pyridin-3-ylmethyl)urea] | 4 nM | 95 nM
31 | CC(=O)c1ccc(S(=O)(=O)c2ccc(NC(=O)NCc3cccnc3)cc2)cc1 [3-{4-[(4-acetylbenzene)sulfonyl]phenyl}-1-(pyridin-3-ylmethyl)urea] | 2 nM | 100 to 1000 nM
32 | CC(=O)c1ccc(NS(=O)(=O)c2ccc(NC(=O)NCc3cccnc3)cc2)cc1 [3-{4-[(4-acetylphenyl)sulfanoyl]phenyl}-1-(pyridin-3-ylmethyl)urea] | 14.4 nM | 1000 to 10000 nM
33 | O=C(NCc1cccnc1)Nc1ccc(S(=O)(=O)c2ccc(Br)cc2)cc1 [3-{4-[(4-bromobenzene)sulfonyl]phenyl}-1-(pyridin-3-ylmethyl)urea] | 3 nM | 239 nM
34 | O=C(NCc1cccnc1)Nc1ccc(S(=O)(=O)c2ccc(Cl)cc2F)cc1 [3-{4-[(4-chloro-2-fluorobenzene)sulfonyl]phenyl}-1-(pyridin-3-ylmethyl)urea] | 2 nM | 415 nM
35 | Cc1cc(Cl)ccc1S(=O)(=O)c1ccc(NC(=O)NCc2cccnc2)cc1 [3-{4-[(4-chloro-2-methylbenzene)sulfonyl]phenyl}-1-(pyridin-3-ylmethyl)urea] | 6 nM | 755 nM
36 | O=C(NCc1cccnc1)Nc1ccc(S(=O)(=O)c2ccc(Cl)c(F)c2)cc1 [3-{4-[(4-chloro-3-fluorobenzene)sulfonyl]phenyl}-1-(pyridin-3-ylmethyl)urea] | 3 nM | 221 nM
37 | COc1cc(S(=O)(=O)c2ccc(NC(=O)NCc3cccnc3)cc2)ccc1Cl [3-{4-[(4-chloro-3-methoxybenzene)sulfonyl]phenyl}-1-(pyridin-3-ylmethyl)urea] | 4.4 nM | 63.2 nM
38 | O=C(NCc1cccnc1)Nc1ccc([S+]([O-])c2ccc(Cl)cc2)cc1 (stereo not drawn) [3-{4-[(4-chlorobenzene)sulfmyl]phenyl}-1-(pyridin-3-ylmethyl)urea] | 8 nM | 41 nM
39 | O=C(NCc1cccnc1)Nc1ccc(S(=O)(=O)Nc2ccc(Cl)c3ccccc23)cc1 [3-{4-[(4-chloronaphthalen-1-yl)sulfamoyl]phenyl}-1-(pyridin-3-ylmethyl)urea] | 5 nM | 53 nM
40 | CCOc1ccc(NS(=O)(=O)c2ccc(NC(=O)NCc3cccnc3)cc2)c(F)c1 [3-{4-[(4-ethoxy-2-fluorophenyl)sulfamoyl]phenyl}-1-(pyridin-3-ylmethyl)urea] | 4 nM | 157 nM
41 | CCOc1ccc(S(=O)(=O)c2ccc(NC(=O)NCc3cccnc3)cc2)cc1F [3-{4-[(4-ethoxy-3-fluorobenzene)sulfonyl]phenyl}-1-(pyridin-3-ylmethyl)urea] | 1.2 nM | 21.7 nM
42 | CCOc1ccc(S(=O)(=O)c2ccc(NC(=O)NCc3cccnc3)cc2)cc1 [3-{4-[(4-ethoxybenzene)sulfonyl]phenyl}-1-(pyridin-3-ylmethyl)urea] | 2.2 nM | 100 to 1000 nM
